Results on seven compounds are retold here after publication PMC7616682 (Journal of biological inorganic chemistry : JBIC : a …, 2024).

Converted amounts (≈) assume the structure as drawn. Read-outs that look alike come from different tables or passages of the source.

The target of series [1] is T1, avidin (Gallus gallus, UniProt P02701).
T1 construct: purchased SIGMA-ALDRICH A9275
In words: HABA/avidin assay. The class given is binding. As to conditions: titration of HABA/avidin mixture, absorbance at 500 nm. The method, then: properties towards avidin using the HABA assay.[8] A mixture of avidin (6.8 μM, SIGMA-ALDRICH: A9275) and 4'-hydroxyazobenzene-2-carboxylic acid (HABA, 0.3 mM, SIGMA-ALDRICH: H5126) was dissolved in 50 mM sodium phosphate buffer (20 mL, pH 7.4) and allowed to equilibrate for 24 h at 4 °C. Stock solutions of each compound were prepared in dimethyl sulfoxide at a concentration of 1.1 mM. The […]
to the prepared avidin/HABA mixture (1 mL) at room temperature at 5–10 min intervals […]
absorbance then recorded with an Agilent 8453 UV/Vis spectrometer. The formation of the adduct was indicated by a decrease in the absorbance at 500 nm due to the displacement of HABA from the avidin. By plotting -ΔA500 nm vs. the molar concentration ratio c(compound):c(avidin), the binding stoichiometry of the compound to avidin was determined.

Series [2] relates to Psuedomonas aeruginosa ATCC BAA-47. The experiment in a line: Rapid screen broth microdilution assay. The settings on record: rapid screen without replicates, 24 h, read-out: MIC P. aeruginosa (Gram negative). The class given is cell-based, Pseudomonas aeruginosa. The method, then:
(§1) Antibacterial activity assay
(§2) Rapid screen broth microdilution assay
(§3) 5 × 125 mL Erlenmeyer flasks, each filled with 12.5 mL Mueller Hinton broth II (MHBII), were inoculated with Klebsiella pneumoniae ATCC 13883, Acinetobacter baumanii ATCC 17978, Psuedomonas aeruginosa ATCC BAA-47, Staphylococcus aureus […]
(§4) with 12.5 mL BHI broth was inoculated with Enterococcus faecium ATCC 19434. The cultures were incubated at 37 °C with shaking at 180 rpm for 16 h. The suspensions were diluted 100-fold with the requisite broth (E. faecium: 4-fold) and the resultant suspensions incubated for a further 3 h at 37 °C with shaking. […]
(§5) of 0.8–1.2 after 3 h. Stock solutions of the title compounds were prepared in the requisite broth from 100 mM stocks in DMSO with the exceptions of carbenicillin, which was from a 100 mM stock in water and ciprofloxacin from a 10 mM stock in DMSO.
(§6) 6 × 96 well plates were primed with a concentration gradient of the analytes from 200 to 3.13 µM, carbenicillin from 200 to 3.13 µM and ciprofloxacin from 10 to 0.16 µM. The cells were diluted 100-fold to an OD600 of 0.01. All plates were then inoculated with 50 μL per well bacterial culture in the requisite broth to 100 μL per well. Plates were then incubated at 37 °C for 24 h before reading OD600 on a BMG Clariostar platereader. […]

For series [3], the system named is E. faecium ATCC 19434. The experiment in a line: MIC broth microdilution assay. The series is classed as cell-based, Enterococcus faecium. As to conditions: three colonies, 24 h; for MIC: read-out: MIC E. faecium (Gram positive). The method, then: (§7) Antibacterial activity assay […]
(§8) MIC broth microdilution assay
(§9) 3 × 125 mL Erlenmeyer flasks, each filled with 12.5 mL MHBII, were inoculated with three different colonies of S. aureus NTCC 12973. 3 × 125 mL Erlenmeyer flasks, each filled with 12.5 mL BHI broth, were inoculated with three different colonies of E. faecium ATCC 19434. The cultures were incubated at 37 °C with shaking at 180 rpm for 16 h.
(§10) OD600 of ~2.5. The suspensions of S. aureus cultures were diluted 100-fold with MHBII while the E. faecium cultures were diluted 4-fold. The resultant suspensions were incubated for a further 3 h at 37 °C with shaking. […]
(§11) after 3 h. Stock solutions of the title compounds were prepared in the requisite broth from 100 mM stocks in DMSO with the exception of carbenicillin, which was from a 100 mM stock in water and vancomycin from a 10 mM stock in DMSO. 15 × 96 well plates were primed with concentration gradients of the analytes and carbenicillin as shown in Figure S60 for S. aureus. 15 × 96 well plates were primed with the concentration […]
(§12) μL per well of the relevant bacterial culture in the requisite broth to 100 μL per well.

The subject of series [4] is Escherichia coli K12 ATCC 10798. In words: Rapid screen broth microdilution assay. The class given is cell-based. The settings on record: rapid screen without replicates, 24 h, read-out: MIC E. coli (Gram negative). On the procedure: as §1, §2, §3, §4, §5, §6
Series [5] concerns Klebsiella pneumoniae ATCC 13883. In words: Rapid screen broth microdilution assay. The class given is cell-based. The settings on record: rapid screen without replicates, 24 h, read-out: MIC K. pnuemoniae (Gram negative). On the procedure: as §1, §2, §3, §4, §5, §6
The test system of series [6] is BEASB2, HaCat, RPE1, HCT116 and HeLa cell lines. The experiment in a line: Cell viability, summary over all cell lines studied. The class given is cell-based, human. The settings on record: summary of Table 3, 48 h; for IC50: read-out: IC50 values, range over all cell lines studied. The method, then: (§13) To determine the relative viability, after incubation cells were fixed and stained with DAPI and the number of nuclei per well determined using a CeligoTM Image Cytometer (Figure S52 to S60). […] page 43: Cell viability studies Compound cytotoxicity was tested simultaneously on five representative cell lines […] All cells were cultured in DMEM Glutamax without pyruvate with 10% fetal bovine serum and 1% penicillin/streptomycin (Gibco). Cells were incubated with the compound for 24 or 48 h […] The tested concentration range for each compound was […] The required […] Greiner CELLSTAR® microplates) using the Echo 550 Acoustic Liquid Handler and wells were back-filled with DMSO when required to keep a final DMSO concentration […] Next, 50 μL of cell solution was added to the compound-containing wells using the Integra® […] Bulk dispenser. Cell solutions were prepared to get 5000 […] cells per well for hTERT RPE-1, and 5000 (24 h)/2500 (48 h) cells per well for BEAS- […] After incubation, cells were fixed with 4% PFA (Merck, […]), permeabilized with […] DAPI (Merck, 10236276001). Viable cells were counted using 377 nm excitation and 447 nm emission filters on the CeligoTM Image Cytometer. The number of nuclei per well was determined using the Direct Cell Count analysis from the CeligoPro Sofware […] All conditions were performed in triplicate. Staurosporine (Cambridge Bioscience, s7600) was used as a positive control and DMSO only as a negative control. The percentage of cell viability was normalized to the DMSO-only control and […] logistic curve with the scipy.optimize.curve_fit function. S43

Series [7] concerns HeLa (cervical cancer) cells. In words: Cell viability (DAPI nuclei count). The series is classed as cell-based, human. As to conditions: 48 h. The method, then: as §13
For series [8], the system named is HaCat (non-cancer skin) cells. The experiment in a line: Cell viability (DAPI nuclei count). The class given is cell-based, human. The settings on record: 48 h. The method, then:
as §13

Series [9] concerns RPE1 (retinal pigment epithelial cells). The experiment in a line: Cell viability (DAPI nuclei count). The series is classed as cell-based, human. The settings on record: 48 h. On the procedure:
as §13

For series [10], the system named is HCT116 (colorectal cancer) cells. The experiment in a line: Cell viability (DAPI nuclei count). As to conditions: 48 h. The class given is cell-based, human. The method, then:
as §13

Series [11] relates to Acinetobacter baumanii ATCC 17978. The experiment in a line: Rapid screen broth microdilution assay. The class given is cell-based, Acinetobacter baumannii. As to conditions: rapid screen without replicates, 24 h, read-out: MIC A. baumannii (Gram negative). On the procedure:
as §1, §2, §3, §4, §5, §6

A short description of series [12]: LogP by shake-flask method (n-octanol/phosphate buffer). On the procedure: using the "shake-flask" method.[6],[7] In short, phosphate buffer (50 mM, pH 7.4) was saturated with n-octanol by shaking a 1:1 mixture of both solution on a laboratory shaker for 72 h, after which the phases were separated. Stock solutions of each complex were then prepared in dimethylsulfoxide at a concentration of 10 mM. […]
solution with a concentration of 100 µM. From this solution, 1000 µL were transferred into an Eppendorf tube and mixed with 1000 µL of n-octanol. After shaking for 15 min and centrifugation (5 min, 6000 rpm), the two phases were carefully separated, and the contact layer discarded. Then, the absorbance of each phase was recorded with an Agilent 8453 UV/Vis spectrometer.
2 mL solution with a concentration of 100 µM. From this solution, 1000 µL were transferred into an Eppendorf tube and mixed with 1000 µL phosphate buffer. After shaking for 15 min and centrifugation (5 min, 6000 rpm), the phases were carefully separated, and the contact layer discarded. Then, the absorbance of each phase was recorded with an Agilent 8453 UV/Vis spectrometer.

Series [13] deals with S. aureus NTCC 12973. The experiment in a line: MIC broth microdilution assay. The settings on record: 24 h, read-out: MIC S. aureus (Gram positive). The class given is cell-based, Staphylococcus aureus. On the procedure:
as §7, §8, §9, §10, §11, §12
Plates were then incubated at 37 °C for 24 h before reading OD600 on a BMG Clariostar […]
Figure S50: Dose response profiles of the title compounds against S. aureus.
(1 picture or pasted object on this page, not shown here)

Series [14] deals with BEAS2B (non-cancer lung) cells. In words: Cell viability (DAPI nuclei count). The series is classed as cell-based, human. The settings on record: 48 h. The method, then: as §13

T1 sequence (P02701 25-152): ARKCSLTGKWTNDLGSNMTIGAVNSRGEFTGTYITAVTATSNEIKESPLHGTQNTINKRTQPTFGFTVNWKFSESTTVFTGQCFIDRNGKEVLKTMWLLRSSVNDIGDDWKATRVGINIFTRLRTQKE

`COC(=O)c1n[n]([Pt][c]2c(-c3ccccn3)cccc2-c2ccccn2)nc1C(=O)OC` [Compound 13]: in series [1], the “avidin binding in HABA assay (result in words)” value (shortened to “avidin binding in HABA assay”) is “non-specific protein binding”. Moreover, the minimum inhibitory concentration (MIC) is over 200 µM in series [2]; over 200 µM in series [3]; over 200 µM in series [4]; over 200 µM in series [5]; over 200 µM in [11]; 200 µM in series [13] (three colonies). In addition, in series [6], the “IC50 values, range over all cell lines studied” value is recorded as “did not show any biological activity”. The IC50 in series [7], in series [8], in [9] and in series [10] was over 50 µM each time. For the same compound, the LogP entry in [12] (pH 7.4) is “highly lipophilic^a”.
As to `COC(=O)c1n[n]([Ir+][c]2ccccc2-c2ccccn2)nc1C(=O)OC.F[P-](F)(F)(F)(F)F.c1ccc(-c2cccc(-c3ccccn3)n2)nc1` [Compound 17], in series [1], the “avidin binding in HABA assay” value is reported as “non-specific protein binding”. The MIC in [2], in series [3], in series [4], in [5], in [11] and in [13] (three colonies) was over 200 µM in each case. For the same compound, the IC50 is over 35 µM in [6]; over 50 µM in series [7]; over 50 µM in series [8]; 35 µM in series [9]; over 50 µM in series [10]. In [12] (pH 7.4), this compound gave a LogP of -1.02.
For `O=C1N[C@H]2[C@H](CS[C@H]2CCCCC(=O)c2n[n]([Pt][c]3c(-c4ccccn4)cccc3-c3ccccn3)nc2-c2ccccc2)N1` [Compound 14, [Pt(triazolatoC6H5,biotin)(dpb)]], the MIC is on record as over 200 µM in [2]; over 200 µM in series [4]; over 200 µM in series [5]; over 200 µM in [11]; 12.5 µM in series [13] (three colonies). In addition, in series [3], the “MIC E. faecium (Gram positive)” value was in the range of 5 to 10 µM. For the same compound, the concentration for half-maximal inhibition (IC50) was 8.2 µM in series [7]; 10.2 µM in series [8]; 6.7 µM in series [14]; 7.4 µM in [9]; 9.4 µM in series [10]. Further, the lipophilicity (LogP) entry in series [12] (shake-flask method, n-octanol/phosphate buffer 50 mM pH 7.4) is listed as “highly lipophilic^a”.
As for `O=C(O)c1cn(C2CC2)c2cc(N3CCNCC3)c(F)cc2c1=O` [Ciprofloxacin, reference compound], the minimal inhibitory concentration (MIC) in series [2] (Pseudomonas aeruginosa, ATCCBAA47) was 100 µM (≈ 33.1 µg/mL); in [5] (Klebsiella pneumoniae, ATCC13883), under 0.16 µM; in series [11] (Acinetobacter baumannii, ATCC17978), 0.31 µM (≈ 0.103 µg/mL).
Consider `CC(=O)c1n[n]([Au][PH](c2ccccc2)(c2ccccc2)c2ccccc2)nc1-c1ccccc1` [Compound 11, [Au(triazolatoC6H5,COCH3)(PPh3)]], for which the “avidin binding in HABA assay” value in series [1] is “non-specific protein binding”. The MIC is recorded as over 200 µM in series [2]; over 200 µM in series [4]; over 200 µM in series [5]; 100 µM in [11]; 2.5 µM in series [13] (three colonies). Also, the “MIC E. faecium (Gram positive)” value in [3] lay in the range of 0.625 to 5 µM. The IC50 in series [6] is 2 to 8 µM; in [7], 3.5 µM; in series [8] it was 6.1 µM; in series [14] it was 2.5 µM; in [9] it was 2.7 µM; in series [10], 5.5 µM. Also, the LogP result in [12] (pH 7.4) is “highly lipophilic^a”.
`CC1(C)S[C@@H]2[C@H](NC(=O)C(C(=O)O)c3ccccc3)C(=O)N2[C@H]1C(=O)O` (stereo partly drawn) [Carbenicillin, reference compound]: the MIC stood at 12.5 µM (≈ 4.73 µg/mL) in series [4] (Escherichia coli, ATCC10798) and 12.5 µM (≈ 4.73 µg/mL) in [13] (Staphylococcus aureus, NTCC12973, three colonies).
On to “[Au(triazolatoC6H5,biotin)(PPh3)] [Compound 12]”, for which the MIC in series [2] is listed as over 200 µM; in series [4], over 200 µM; in series [5], over 200 µM; in [11], 50 µM; in series [13] (three colonies) it was 1.25 µM. Besides, in series [3], the “MIC E. faecium (Gram positive)” value is 0.625 to 2.5 µM. Also, the IC50 in series [6] is 2 to 8 µM; in series [7], 3.8 µM; in series [8], 6.6 µM; in series [14] it was 2.7 µM; in series [9], 3.6 µM; in series [10] it was 7.2 µM.
